# Data: patent US9809623B2, “α4β7 peptide monomer and dimer antagonists” (Protagonist Therapeutics, Inc., priority 2014, dated 2017)
# Numbered stars: 1 amine (or outer) side, 2 acyl side, 3 side chain; on linkers, the order of the positions; unused ones are H or OH. Bridge positions count the residues as written; N and C are the ends. Square brackets hold non-standard residues; d marks the D form. Peptide text beside a SMILES is read from it. I, II: the chains in the order shown. Phe(4-tBu) = CC(C)(C)c1ccc(C[C@H](N)C(=O)O)cc1; Diglycolyl = O=C(COCC(=O)[*:2])[*:1]; NMeR = CN[C@@H](CCCNC(=N)N)C(=O)O; β3hE = N[C@@H](CCC(=O)O)CC(=O)O; NMeK = CN[C@@H](CCCCN)C(=O)O; Pen = CC(C)(S)[C@H](N)C(=O)O; dNMeK = CN[C@H](CCCCN)C(=O)O
# How the values were obtained:
# [1] = target: T1, α4β7 (Mus musculus, UniProt P26011+Q00651); test: α4β7 Cell Adhesion Assay (Mouse), TK1 cells; assay type: cell-based; settings: Table 4-B; read-out: Cell Adhesion α4β7 Mouse IC50
# T1 construct: host or cells: TK1 mouse T cells
# T1 sequence (Q00651 34-1039 limits assumed): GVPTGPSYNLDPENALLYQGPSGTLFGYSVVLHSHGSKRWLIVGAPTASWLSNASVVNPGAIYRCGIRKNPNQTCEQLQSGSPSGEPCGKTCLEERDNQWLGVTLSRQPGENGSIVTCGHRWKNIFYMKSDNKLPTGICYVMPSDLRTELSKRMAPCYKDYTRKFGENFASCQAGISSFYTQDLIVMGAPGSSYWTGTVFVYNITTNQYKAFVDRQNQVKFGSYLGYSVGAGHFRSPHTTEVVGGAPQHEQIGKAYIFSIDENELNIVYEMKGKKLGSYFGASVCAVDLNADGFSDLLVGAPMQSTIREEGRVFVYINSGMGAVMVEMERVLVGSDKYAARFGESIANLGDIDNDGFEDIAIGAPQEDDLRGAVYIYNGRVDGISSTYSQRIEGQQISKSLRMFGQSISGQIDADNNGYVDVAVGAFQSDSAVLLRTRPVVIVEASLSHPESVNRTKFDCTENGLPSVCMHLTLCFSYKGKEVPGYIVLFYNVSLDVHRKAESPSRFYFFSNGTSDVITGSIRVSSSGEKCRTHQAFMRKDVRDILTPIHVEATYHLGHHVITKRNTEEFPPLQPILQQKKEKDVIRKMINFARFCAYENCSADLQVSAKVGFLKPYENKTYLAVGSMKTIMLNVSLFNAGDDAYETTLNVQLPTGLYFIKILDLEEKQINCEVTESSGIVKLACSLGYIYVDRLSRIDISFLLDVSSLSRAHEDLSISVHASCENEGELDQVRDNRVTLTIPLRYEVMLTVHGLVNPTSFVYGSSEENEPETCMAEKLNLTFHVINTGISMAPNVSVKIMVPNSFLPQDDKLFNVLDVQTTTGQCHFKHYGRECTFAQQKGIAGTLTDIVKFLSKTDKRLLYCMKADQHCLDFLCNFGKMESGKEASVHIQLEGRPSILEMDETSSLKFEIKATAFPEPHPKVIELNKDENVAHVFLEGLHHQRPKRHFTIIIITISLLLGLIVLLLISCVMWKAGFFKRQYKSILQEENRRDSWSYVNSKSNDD
# T1 sequence (P26011 20-806): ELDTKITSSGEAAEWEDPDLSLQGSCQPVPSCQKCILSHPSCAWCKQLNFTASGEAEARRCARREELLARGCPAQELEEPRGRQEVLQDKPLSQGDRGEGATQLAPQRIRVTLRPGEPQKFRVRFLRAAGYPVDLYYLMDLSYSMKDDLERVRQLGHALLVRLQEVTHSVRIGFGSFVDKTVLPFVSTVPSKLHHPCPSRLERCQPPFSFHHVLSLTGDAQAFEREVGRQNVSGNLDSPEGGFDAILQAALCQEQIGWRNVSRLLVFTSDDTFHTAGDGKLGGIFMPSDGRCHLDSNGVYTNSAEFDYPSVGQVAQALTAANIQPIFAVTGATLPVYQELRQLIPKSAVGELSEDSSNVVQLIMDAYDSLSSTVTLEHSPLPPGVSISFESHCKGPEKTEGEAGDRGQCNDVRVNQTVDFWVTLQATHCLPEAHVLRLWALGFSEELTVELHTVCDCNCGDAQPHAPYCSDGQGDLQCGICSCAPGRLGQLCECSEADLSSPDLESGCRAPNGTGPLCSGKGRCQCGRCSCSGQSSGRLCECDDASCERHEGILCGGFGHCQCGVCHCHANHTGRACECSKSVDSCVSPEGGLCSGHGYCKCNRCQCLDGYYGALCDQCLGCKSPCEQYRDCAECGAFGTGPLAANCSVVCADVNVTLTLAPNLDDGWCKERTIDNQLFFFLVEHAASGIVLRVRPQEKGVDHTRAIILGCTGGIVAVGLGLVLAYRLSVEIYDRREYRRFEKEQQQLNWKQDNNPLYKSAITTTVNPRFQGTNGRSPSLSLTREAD
# In short: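 Mouse TK1 cells in DMEM with 0.1% BSA, 10 mM HEPES pH 7 and 1 mM MnCl2 were allowed to adhere for 30-45 min at 37 °C to plates coated with recombinant human MAdCAM-1 Fc (200 ng/well) in the presence of serially diluted peptides. Adherent cells were quantified by MTT absorbance at 570 nm, with no-cell background subtracted for dose response.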
# [2] = target: α4β7 (Homo sapiens, UniProt P13612+P26010); test: PBMC Memory T Cell Adhesion Assay, adhesion to MAdCAM-1; assay type: cell-based; settings: Table 4-B; read-out: Cell Adhesion PBMC IC50
# Sequence of α4β7 (Homo sapiens, UniProt P13612+P26010) (P13612 34-1032): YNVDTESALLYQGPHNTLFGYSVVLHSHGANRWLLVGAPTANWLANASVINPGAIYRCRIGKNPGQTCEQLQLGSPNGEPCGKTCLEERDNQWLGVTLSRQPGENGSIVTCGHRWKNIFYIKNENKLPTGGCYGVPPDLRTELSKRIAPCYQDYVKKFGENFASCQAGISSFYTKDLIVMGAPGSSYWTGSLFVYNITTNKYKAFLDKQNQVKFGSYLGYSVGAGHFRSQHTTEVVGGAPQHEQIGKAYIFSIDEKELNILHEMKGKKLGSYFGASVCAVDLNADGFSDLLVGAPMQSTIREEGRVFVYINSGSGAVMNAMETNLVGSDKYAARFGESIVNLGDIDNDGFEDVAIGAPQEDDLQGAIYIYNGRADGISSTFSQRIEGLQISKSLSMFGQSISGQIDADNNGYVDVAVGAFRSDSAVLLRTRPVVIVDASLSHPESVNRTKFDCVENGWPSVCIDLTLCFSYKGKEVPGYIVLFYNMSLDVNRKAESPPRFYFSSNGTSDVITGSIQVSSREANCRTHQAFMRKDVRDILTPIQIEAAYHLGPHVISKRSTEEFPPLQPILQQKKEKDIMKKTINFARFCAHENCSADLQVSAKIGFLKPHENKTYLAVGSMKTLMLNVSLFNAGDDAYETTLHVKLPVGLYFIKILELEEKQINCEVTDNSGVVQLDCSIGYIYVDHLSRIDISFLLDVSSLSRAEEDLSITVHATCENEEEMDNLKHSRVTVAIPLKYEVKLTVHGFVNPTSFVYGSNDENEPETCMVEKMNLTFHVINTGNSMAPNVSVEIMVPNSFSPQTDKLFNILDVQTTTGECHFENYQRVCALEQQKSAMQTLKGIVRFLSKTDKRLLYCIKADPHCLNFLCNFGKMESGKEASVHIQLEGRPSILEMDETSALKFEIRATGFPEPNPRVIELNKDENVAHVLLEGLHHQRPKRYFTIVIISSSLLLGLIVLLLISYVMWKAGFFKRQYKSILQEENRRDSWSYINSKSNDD
# Sequence of α4β7 (Homo sapiens, UniProt P13612+P26010) (P26010 20-798): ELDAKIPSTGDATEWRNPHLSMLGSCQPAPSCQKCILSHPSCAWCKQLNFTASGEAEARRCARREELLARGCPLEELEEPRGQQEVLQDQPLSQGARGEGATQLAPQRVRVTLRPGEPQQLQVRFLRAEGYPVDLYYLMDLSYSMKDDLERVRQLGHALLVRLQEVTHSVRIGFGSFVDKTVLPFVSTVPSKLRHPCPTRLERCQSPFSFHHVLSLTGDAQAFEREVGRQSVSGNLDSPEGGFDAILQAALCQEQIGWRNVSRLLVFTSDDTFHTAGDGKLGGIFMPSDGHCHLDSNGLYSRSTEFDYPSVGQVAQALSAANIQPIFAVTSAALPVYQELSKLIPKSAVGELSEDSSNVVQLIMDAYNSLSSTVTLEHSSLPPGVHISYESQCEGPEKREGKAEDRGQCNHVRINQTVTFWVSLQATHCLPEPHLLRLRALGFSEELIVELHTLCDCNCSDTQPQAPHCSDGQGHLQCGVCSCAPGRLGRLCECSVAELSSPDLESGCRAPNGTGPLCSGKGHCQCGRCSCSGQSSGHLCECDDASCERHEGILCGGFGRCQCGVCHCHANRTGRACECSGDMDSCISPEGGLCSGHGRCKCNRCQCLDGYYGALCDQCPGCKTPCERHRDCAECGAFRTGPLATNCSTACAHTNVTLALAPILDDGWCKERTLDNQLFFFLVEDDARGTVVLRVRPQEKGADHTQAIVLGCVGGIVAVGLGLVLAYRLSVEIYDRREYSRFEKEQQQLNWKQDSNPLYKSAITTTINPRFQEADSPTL
# In short: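 Fresh human CD4+/CD45RO+ memory T cells in binding medium with 1 mM MnCl2 were preincubated with compound for 1.5 h at 37° C. on plates coated with Fc-captured MAdCAM-1 (400 ng/well). Adherent cells were read by fluorescence (Ex 485/Em 530). IC50 came from four-parameter nonlinear regression of RFU versus log concentration.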
# [3] = Simulated Gastric Fluid (SGF) Assay; assay type: in vitro ADME; settings: pig, simulated gastric fluid (SGF) with porcine pepsin, pH 2; Table 4-C, t1/2
# Method: SGF was prepared by adding 20 mg NaCl, 32 mg porcine pepsin (MP Biochemicals, catalog 02102599), and 70 μl HCl to 10 ml water (final pH=2). Aliquots of SGF (0.5 ml each) were pre-warmed at 37° C. For each peptide tested, to start the reaction, 1 μl of peptide stock solution (10 mM in DMSO) was added to 0.5 ml SGF and thoroughly mixed such that the final peptide concentration was 20 μM. The reactions were incubated at 37° C. with gentle shaking. At each time point (0, 15, 30, 60 min), 50 μl aliquots were removed and added to 200 ul acetonitrile containing 0.1% formic acid to quench the reaction. Samples were stored at 4° C. until the end of the experiment and centrifuged at 10,000 rpm for 5 minutes. Aliquots of the supernatant were removed, diluted 1:1 into distilled water containing internal standard, and analyzed by LCMS/MS. Percent remaining at each timepoint was calculated based on the peak area response ratio of test compound to internal standard. Time 0 was set to 100%, and all later timepoints were calculated relative to time 0. Half-lives were calculated by fitting to a first-order exponential decay equation using GraphPad.
SMILES,IC50 [1] [nM],IC50 [2] [nM],half-life at 20 μM [3] [min]
"CC(=O)N[C@@H]1C(=O)N(C)[C@@H](CCCNC(=N)N)C(=O)N[C@@H](CO)C(=O)N[C@@H](CC(=O)O)C(=O)N[C@@H]([C@@H](C)O)C(=O)N[C@@H](CC(C)C)C(=O)N[C@H](C(=O)N[C@@H](Cc2c[nH]c3ccccc23)C(=O)N[C@H](CCCCNC(=O)COCC(=O)NCCCC[C@@H](NC(=O)[C@H](Cc2c[nH]c3ccccc23)NC(=O)[C@H]2NC(=O)[C@H](CC(C)C)NC(=O)[C@H]([C@@H](C)O)NC(=O)[C@H](CC(=O)O)NC(=O)[C@H](CO)NC(=O)[C@H](CCCNC(=N)N)N(C)C(=O)[C@@H](NC(C)=O)C(C)(C)SSC2(C)C)C(N)=O)C(N)=O)C(C)(C)SSC1(C)C [compound 209, (Ac-Pen-N-Me-R-S-D-T-L-Pen-W-k-NH2)2-DIG] (I: Ac-[Pen][NMeR]SDTL[Pen]W[dK]-NH2 / II: Ac-[Pen][NMeR]SDTL[Pen]W[dK]-NH2; disulfide I:1-I:7, II:1-II:7 (inferred); linker I:9-II:9 via Diglycolyl (inferred))",51,260,> 180
"CC(=O)N[C@@H]1C(=O)N(C)[C@@H](CCCNC(=N)N)C(=O)N[C@@H](CO)C(=O)N[C@@H](CC(=O)O)C(=O)N[C@@H]([C@@H](C)O)C(=O)N[C@@H](CC(C)C)C(=O)N[C@H](C(=O)N[C@@H](Cc2c[nH]c3ccccc23)C(=O)N[C@@H](CCC(=O)O)C(=O)N(C)[C@H](CCCCNC(=O)COCC(=O)NCCCC[C@H](C(N)=O)N(C)C(=O)[C@H](CCC(=O)O)NC(=O)[C@H](Cc2c[nH]c3ccccc23)NC(=O)[C@H]2NC(=O)[C@H](CC(C)C)NC(=O)[C@H]([C@@H](C)O)NC(=O)[C@H](CC(=O)O)NC(=O)[C@H](CO)NC(=O)[C@H](CCCNC(=N)N)N(C)C(=O)[C@@H](NC(C)=O)C(C)(C)SSC2(C)C)C(N)=O)C(C)(C)SSC1(C)C [compound 214, [Ac-Pen-(N-Me-Arg)-Ser-Asp-Thr-Leu-Pen-Trp-Glu-(N-Me-D-Lys)-NH2]2-DIG] (I: Ac-[Pen][NMeR]SDTL[Pen]WE[dNMeK]-NH2 / II: Ac-[Pen][NMeR]SDTL[Pen]WE[dNMeK]-NH2; disulfide I:1-I:7, II:1-II:7 (inferred); linker I:10-II:10 via Diglycolyl (inferred))",1.1,24.5,> 360
"CC(=O)N[C@@H]1C(=O)N(C)[C@@H](CCCNC(=N)N)C(=O)N[C@@H](CO)C(=O)N[C@@H](CC(=O)O)C(=O)N[C@@H]([C@@H](C)O)C(=O)N[C@@H](CC(C)C)C(=O)N[C@H](C(=O)N[C@@H](Cc2c[nH]c3ccccc23)C(=O)N[C@@H](CCC(=O)O)C(=O)N(C)[C@@H](CCCCNC(=O)COCC(=O)NCCCC[C@@H](C(N)=O)N(C)C(=O)[C@H](CCC(=O)O)NC(=O)[C@H](Cc2c[nH]c3ccccc23)NC(=O)[C@H]2NC(=O)[C@H](CC(C)C)NC(=O)[C@H]([C@@H](C)O)NC(=O)[C@H](CC(=O)O)NC(=O)[C@H](CO)NC(=O)[C@H](CCCNC(=N)N)N(C)C(=O)[C@@H](NC(C)=O)C(C)(C)SSC2(C)C)C(N)=O)C(C)(C)SSC1(C)C [compound 215, [Ac-Pen-(N-Me-Arg)-Ser-Asp-Thr-Leu-Pen-Trp-Glu-(N-Me-Lys)-NH2]2-DIG] (I: Ac-[Pen][NMeR]SDTL[Pen]WE[NMeK]-NH2 / II: Ac-[Pen][NMeR]SDTL[Pen]WE[NMeK]-NH2; disulfide I:1-I:7, II:1-II:7 (inferred); linker I:10-II:10 via Diglycolyl (inferred))",0.9,16.5,> 360
"CC(=O)N[C@@H]1C(=O)N(C)[C@@H](CCCNC(=N)N)C(=O)N[C@@H](CO)C(=O)N[C@@H](CC(=O)O)C(=O)N[C@@H]([C@@H](C)O)C(=O)N[C@@H](CC(C)C)C(=O)N[C@H](C(=O)N[C@@H](Cc2c[nH]c3ccccc23)C(=O)N[C@H](CCC(=O)O)C(=O)N[C@H](CCCCNC(=O)COCC(=O)NCCCC[C@@H](NC(=O)[C@@H](CCC(=O)O)NC(=O)[C@H](Cc2c[nH]c3ccccc23)NC(=O)[C@H]2NC(=O)[C@H](CC(C)C)NC(=O)[C@H]([C@@H](C)O)NC(=O)[C@H](CC(=O)O)NC(=O)[C@H](CO)NC(=O)[C@H](CCCNC(=N)N)N(C)C(=O)[C@@H](NC(C)=O)C(C)(C)SSC2(C)C)C(=O)O)C(=O)O)C(C)(C)SSC1(C)C [compound 216, (Ac-Pen-N-Me-R-S-D-T-L-Pen-W-e-k-OH)2-DIG] (I: Ac-[Pen][NMeR]SDTL[Pen]W[dE][dK]-OH / II: Ac-[Pen][NMeR]SDTL[Pen]W[dE][dK]-OH; disulfide I:1-I:7, II:1-II:7 (inferred); linker I:10-II:10 via Diglycolyl (inferred))",1,14.5,> 360
"CC(=O)N[C@@H]1C(=O)N(C)[C@@H](CCCNC(=N)N)C(=O)N[C@@H](CO)C(=O)N[C@@H](CC(=O)O)C(=O)N[C@@H]([C@@H](C)O)C(=O)N[C@@H](CC(C)C)C(=O)N[C@H](C(=O)N[C@@H](Cc2ccc(C(C)(C)C)cc2)C(=O)N[C@@H](CCC(=O)O)CC(=O)N[C@H](CCCCNC(=O)COCC(=O)NCCCC[C@@H](NC(=O)C[C@H](CCC(=O)O)NC(=O)[C@H](Cc2ccc(C(C)(C)C)cc2)NC(=O)[C@H]2NC(=O)[C@H](CC(C)C)NC(=O)[C@H]([C@@H](C)O)NC(=O)[C@H](CC(=O)O)NC(=O)[C@H](CO)NC(=O)[C@H](CCCNC(=N)N)N(C)C(=O)[C@@H](NC(C)=O)C(C)(C)SSC2(C)C)C(N)=O)C(N)=O)C(C)(C)SSC1(C)C [compound 218, [Ac-Pen-(N-Me-Arg)-Ser-Asp-Thr-Leu-Pen-Phe(4-tBu)-(β-homoGlu)-(D-Lys)-NH2]2-DIG] (I: Ac-[Pen][NMeR]SDTL[Pen][Phe(4-tBu)][β3hE][dK]-NH2 / II: Ac-[Pen][NMeR]SDTL[Pen][Phe(4-tBu)][β3hE][dK]-NH2; disulfide I:1-I:7, II:1-II:7; linker I:10-II:10 via Diglycolyl)",0.5,2,> 360
